# Reference: patent US6863907B2, “Antiallergic composition and antipruritic composition” (Sunstar, Inc., priority 1999, dated 2005)
# Test system: human basophilic leukemia cell line KU812
# Experiment: Histamine release suppression test using human basophilic leukemia cell line KU812
# Type: cell-based
# Conditions: KU812 cells, final concentration 0.01%, CRA-1 15 μg/ml stimulation, N=4
# Procedure: Histamine Release Suppression Test Using Human Basophilic Leukemia Cell Line KU812
# A human basophilic leukemia cell line KU812 was grown in a RPMI 1640 medium (GIBCO) supplemented with 10% fetal bovine serum (treated at 56° C. for 30 min), at 37° C. in 5% CO2. The medium was washed by addition of a histamine release buffer (IMMUNOTECH) followed by centrifugation (1500 rpm, 5 min, 4° C.) and removal of the supernatant. The washing procedure was carried out twice. Then, a histamine release buffer was added to prepare a cell suspension having a cell density of 10^5 cells/ml. […] After centrifugation (2000 rpm, 10 min, 4° C.), the histamine content of the supernatant was measured using a Histamine EIA Kit (IMMUNOTECH) (N=4). Then, the mean and standard deviation of the measured values were obtained from the calibration curve, and the histamine release suppression rate (%) was calculated according to the following equation: [formula] wherein: • A represents the histamine content (n M) released from cells treated with the test substance/reference substance and CRA-1; • B represents the histamine content (n M) released from untreated cells; and • C represents the histamine content (n M) released from cells treated with CRA-1 only.
smiles,measurement,value
CNC[C@H](O)c1ccc(O)c(O)c1 [epinephrine],histamine release suppression rate,52±16%
